In patent US20250205204A1, “Transcription Factor Brn2 Inhibitory Compounds for Use as Therapeutics” (The University of British Columbia, priority 2021, published 2025):
pIC50: −log10 of the molar value. Read-outs that look alike come from different tables or passages of the source.

Key:
[1] = Metabolic stability in liver microsomes (MLM); type: in vitro ADME, mice; settings: 0.25 mg/mL protein; for half-life at 1 μM: mouse, liver microsomes, pH 7.4, 1 μM compound, read-out: T1/2 in mins (MLM); for Met Stab % (60 mins) MLM: percent remaining at 60 min, 1 μM compound, 1 mM NADPH
Description: Preparation of Potassium Phosphate Buffer, 50 mM (pH 7.4)
Potassium phosphate buffer (Kphos) was prepared by adding 0.647 g potassium phosphate monobasic (KH2PO4) and 3.527 g potassium phosphate dibasic (KH2PO4) to 400 mL of Milli-Q™ water. pH of the buffer was adjusted to 7.4 and volume was made up to 500 mL.
Preparation of Microsomes
Stock solutions of BRN2 inhibitors were prepared in DMSO at a concentration of 1 mM
Preparation of NADPH Solution
• Total Incubation volume: 100 μL • Compound concentration: 1 μM • Protein Concentration: 0.25 mg/mL • NADPH: 1 mM • Final DMSO contain: 0.1% • Number of replicates: 2 • Time points: 0, 5, 15, 30 and 60 min
From the above mix, 70 μL was added to individual wells of 96 well reaction plates and pre-incubated in a 37° C. water bath for 5 min. […] Reactions without NADPH and buffer controls (minus NADPH) at 0 min and 60 min were also incubated to rule out non-NADPH metabolism or chemical instability in the incubation buffer. All reactions were terminated using 100 μL of ice-cold acetonitrile containing internal standard at 0, 5, 15, 30 and 60 min.
Samples were monitored for parent compounds disappearance in MRM mode using LC-MS/MS.
The percent remaining of test compounds and positive control in each sample was determined by considering peak area ratio in the 0 minute sample as 100%. The Half-life of compounds in microsomes is calculated by formula: […]
In vitro intrinsic clearance (CL'int) (units in mL/min/kg) was calculated using the formula.
[formula] • For liver microsomes, scaling factor used was 45 mg microsomal protein per gm liver. • * Indicates liver weight (gm) which varies species wise. For mice the liver weights are 90 gm.

42D^ENZR cells = assay: Cell proliferation, BRN2 expressing 42D cells (crystal violet); type: cell-based; settings: for Growth Specificity: 42D (express BRN2) versus 16D (no BRN2) cells, result in words
Description: Step 3: Cell Proliferation
Plate 42DE^NZR (˜7000 cells per well) and 16D^CRPC (˜5000 cells per well) cells in 96 well plate with a volume of 100 μL per well. • 2. Next day 1 mL aliquots of media are combined with 3× the desired concentration of compounds. The aliquots are vortexed and 50 μL of each 3× concentration is added to the 100 μL of media in each well to give the ix desired concentration.
The following are the desired concentrations:
Approximately 72 hours later, 17 μL of 10% Glutaraldehyde is added to each well and plates are placed on a shaker for 20-30 minutes. • 4. Media is washed off the fixed cells by slow submersion in a container of water. Then the water is removed by tapping the plate upside down. • 5. 75 μL of Crystal Violet™ solution is added into the 96 well plates and placed on a shaker for ˜30 minutes. • 6. Media is washed off the fixed cells by repeated slow submersion in a container of water and the plates are allowed to dry over-night. • 7. Next day, 75 μL of Sorensen Solution is accurately pipetted into each well. The plates placed on a shaker for ˜30 minutes. • 8. Absorbance is measured in the plate at 590 nm.
There is a distinction in TABLES 1 and 2 difference between “Active” and “Specific” or “Specificity”.

BRN2 = biological target: T1, BRN2 (Homo sapiens, UniProt P20265); assay: BLI binding; settings: result in words
T1 sequence (P20265 1-443): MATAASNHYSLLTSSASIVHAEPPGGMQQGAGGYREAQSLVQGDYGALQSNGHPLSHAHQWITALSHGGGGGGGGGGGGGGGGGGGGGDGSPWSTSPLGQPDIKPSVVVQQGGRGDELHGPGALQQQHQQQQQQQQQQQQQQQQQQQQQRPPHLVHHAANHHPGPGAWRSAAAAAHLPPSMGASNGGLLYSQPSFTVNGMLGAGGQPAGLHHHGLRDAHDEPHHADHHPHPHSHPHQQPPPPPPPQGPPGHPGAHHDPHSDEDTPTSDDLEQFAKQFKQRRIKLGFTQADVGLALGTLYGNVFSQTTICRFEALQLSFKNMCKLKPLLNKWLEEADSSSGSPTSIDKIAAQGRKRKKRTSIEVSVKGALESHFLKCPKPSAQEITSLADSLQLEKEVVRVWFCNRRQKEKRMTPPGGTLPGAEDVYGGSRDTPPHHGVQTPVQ

[2] = 42D cells, proliferation, about 72 hours, read-out: 42D IC50

| half-life at 1 μM [1] | Met Stab % (60 mins) MLM [1] | BLI binding (BRN2) | SMILES | Growth Specificity (42D^ENZR cells; about 72 hours) | pIC50 (42D^ENZR cells; read-out: IC50 (effective on both 42D and 16D cells)) | pIC50 (42D^ENZR cells; [2]) |
| --- | --- | --- | --- | --- | --- | --- |
| 23 min | 9% | Positive | O=C1C/C(=N/Nc2nc3ccccc3s2)c2ccccc21 [7-52] | effective on both 42D and 16D cells | 5.15 to 5.52 |  |
| 50 min | 38% | Positive binding | O=C1/C(=N\Nc2nc3ccccc3s2)Cc2cc(F)ccc21 [7-70, (Z)-2-(2-(benzo[d]thiazol-2-yl)hydrazineylidene)-5-fluoro-2,3-dihydro-1H-inden-1-one] | Specific to 42D |  | ~5.30 |
| 47 min | 35% | Positive binding | O=C1/C(=N\Nc2nc3ccccc3s2)Cc2cc(Cl)ccc21 [7-71, (Z)-2-(2-(benzo[d]thiazol-2-yl)hydrazineylidene)-5-chloro-2,3-dihydro-1H-inden-1-one] | Specific to 42D but weak |  | ~4.82 |
| 22 min | 26% | Positive binding | O=C1/C(=N\Nc2nc3ccccc3s2)Cc2ccc(F)cc21 [7-81, (Z)-2-(2-(benzo[d]thiazol-2-yl)hydrazineylidene)-6-fluoro-2,3-dihydro-1H-inden-1-one] | Specific to 42D |  |  |
| 13 min | 4% | no binding | O=C1/C(=N\Nc2nc3ccccc3s2)Oc2ccccc21 [7-90] | Not specific |  |  |
| > 60 min | 67% | Positive binding | O=C1/C(=N\Nc2nc3ccccc3s2)Cc2c1cccc2C(F)(F)F [7-91] | Specific to 42D |  | ~5.70 |
| 48 min | 41% | Positive binding | N#Cc1ccc2c(c1)C(=O)/C(=N\Nc1nc3ccccc3s1)C2 [7-92] | Specific but weak |  | ~4.82 |
| 44 min | 39% | no binding | N#Cc1ccc2c(c1)C/C(=N/Nc1nc3ccccc3s1)C2=O [7-93] | Specific but weak |  | ~4.82 |
| > 60 min | 50% | Positive binding | O=C1/C(=N\Nc2nc3ccccc3s2)Cc2cc(Br)ccc21 [7-94] | Specific to 42D |  | ~5.70 |
| > 60 min | 69% | Positive binding | O=C1/C(=N\Nc2nc3ccccc3s2)Nc2ccccc21 [7-95] | Specific but weak |  | ~4.82 |
| 31 min | 22% | inconclusive, needs to be repeated | Cc1ccc2c(c1)C/C(=N/Nc1nc3ccccc3s1)C2=O [7-96] | Specific but weak |  | ~4.82 |
| > 60 min | 69% | Positive binding | O=C1/C(=N\Nc2nc3ccccc3s2)Cc2cc(F)c(F)cc21 [7-97] | Specific to 42D |  | ~5.70 |
| 33 min | 26% |  | O=C1/C(=N\Nc2nc3ccccc3s2)Cc2cc(-c3ccccc3)ccc21 [7-98] | Specific to 42D |  | ~5.70 |
| 15 min | 6% |  | COc1ccc2c(c1)C/C(=N/Nc1nc3ccccc3s1)C2=O [7-99] | Potent but effective on both 42D and 16D cells |  |  |
| 38 min | 30% | Positive binding | O=C1/C(=N\Nc2nc3ccccc3s2)Cc2cc(F)c(Cl)cc21 [7-100] | Specific to 42D |  | ~5.70 |
| > 60 min | 67% | Positive binding | O=C1/C(=N\Nc2nc3ccccc3s2)Cc2c1ccc(F)c2F [7-101] | Specific to 42D cells |  | 5.60 to 6.00 |
| 56 min | 46% | Positive binding but not strong | O=C1/C(=N\Nc2nc3ccccc3s2)Cc2cc(F)cc(F)c21 [7-102] | Specific to 42D cells |  | ~5.60 |
| 44 min | 42% | No binding | O=C1/C(=N\Nc2nc3ccccc3s2)Cc2cc(N3CCOCC3)ccc21 [7-103] | Not specific |  |  |
| 25 min | 17% | No binding | CCc1ccc2c(c1)C/C(=N/Nc1nc3ccccc3s1)C2=O [7-104] | Not specific |  |  |
| > 60 min | 75% | No binding | O=C1/C(=N\Nc2nc3ccccc3s2)Cc2cc(C3CC3)ccc21 [7-105] | Not specific |  |  |
| 46 min | 38% | Positive binding | O=C1/C(=N\Nc2nc3ccccc3s2)Cc2cccc(C(F)(F)F)c21 [7-106] | Specific to 42D cells |  | ~5.70 |
| > 60 min | 82% |  | O=C1/C(=N\Nc2nc3ccccc3s2)Cc2ccc(C(F)(F)F)cc21 [7-107] | Low potency |  |  |
| 13 min | 3% | Positive binding | CCN(CC)c1ccc2c(c1)C(=O)/C(=N\Nc1nc3ccccc3s1)C2 [7-109] | Not specific |  |  |
| 32 min | 25% | No binding | COC(=O)c1ccc2c(c1)C(=O)/C(=N\Nc1nc3ccccc3s1)C2 [7-110] | No activity |  |  |
| 15 min | 6% | No binding | COC(=O)c1ccc2nc(N/N=C3/Cc4ccccc4C3=O)sc2c1 [7-111] | No activity |  |  |
| 32 min | 26% | No binding | O=C1/C(=N\Nc2nc3ccccc3s2)Cc2cc(N3CCCCC3)ccc21 [7-112] | Not specific |  |  |
| 15 min | 6% | No binding | O=C1/C(=N\Nc2nc3ccccc3s2)Cc2cc(N3CCC3)ccc21 [7-113] | precipitates |  |  |
|  |  | No binding | CNC(=O)c1ccc2c(c1)C/C(=N/Nc1nc3ccccc3s1)C2=O [7-117] | Not specific |  |  |
|  |  | No binding | CNC(=O)c1ccc2c(c1)C(=O)/C(=N\Nc1nc3ccccc3s1)C2 [7-118] | very low activity |  |  |
